Results on 24 compounds are retold here after US10358436B2, “Kinase inhibitors and method of treating cancer” (University Health Network, priority 2010, dated 2019).

Like-named read-outs stand apart in the source and are kept apart here. Some results are limits rather than exact numbers.

Common to all, as to assay type: biochemical
Assay [1] concerns the target Aurora A (Homo sapiens (Human), UniProt O14965). Briefly: Aurora A inhibition assay (Z-Lyte).
In assay [2] the target is Aurora B (Homo sapiens (Human), UniProt Q96GD4). Briefly: Aurora B inhibition assay (Z-Lyte).
Chain of Aurora B (Q96GD4 whole entry): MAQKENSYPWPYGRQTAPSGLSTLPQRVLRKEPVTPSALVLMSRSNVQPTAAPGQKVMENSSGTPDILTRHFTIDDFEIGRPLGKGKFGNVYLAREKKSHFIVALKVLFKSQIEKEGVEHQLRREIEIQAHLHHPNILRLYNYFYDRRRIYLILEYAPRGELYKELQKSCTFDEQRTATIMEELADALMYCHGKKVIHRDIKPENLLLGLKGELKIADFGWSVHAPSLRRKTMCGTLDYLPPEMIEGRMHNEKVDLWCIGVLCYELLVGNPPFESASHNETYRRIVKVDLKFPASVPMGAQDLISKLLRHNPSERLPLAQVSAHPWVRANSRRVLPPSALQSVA
Description: Aurora B inhibition was determined using the Z-Lyte assay kit from Invitrogen. […] The % inhibition values were determined according to the manufacturer's directions and IC50 values were obtained using a non-linear 4 point logistic curve fit (XLfit4, IDBS)
Assay [3] addresses human PLK4 (Homo sapiens (Human), UniProt O00444). Nature of the assay: PLK4 inhibition assay (indirect ELISA). (In general: An ELISA detects its analyte on a solid surface through an enzyme-linked reagent.)
Description: PLK4 activity was measured using an indirect ELISA detection system. […] The colourimetric reaction was allowed to continue for 5 minutes, followed by addition of stop solution (0.5 N sulphuric acid), and quantified by detection at 450 nm with either a monochromatic or filter based plate reader (Molecular Devices M5 or Beckman DTX880, respectively).
Compounds were pre-incubated in the presence of enzyme for 15 minutes prior to addition of ATP and the activity remaining quantified using the above described activity assay. […] The IC50 value was determined using a non-linear 4 point logistic curve fit (XLfit4, IDBS) with the formula; (A+(B/(1+((x/C)^D)))), where A=background value, B=range, C=inflection point, D=curve fit parameter.

Chain of human PLK4 (O00444 1-391): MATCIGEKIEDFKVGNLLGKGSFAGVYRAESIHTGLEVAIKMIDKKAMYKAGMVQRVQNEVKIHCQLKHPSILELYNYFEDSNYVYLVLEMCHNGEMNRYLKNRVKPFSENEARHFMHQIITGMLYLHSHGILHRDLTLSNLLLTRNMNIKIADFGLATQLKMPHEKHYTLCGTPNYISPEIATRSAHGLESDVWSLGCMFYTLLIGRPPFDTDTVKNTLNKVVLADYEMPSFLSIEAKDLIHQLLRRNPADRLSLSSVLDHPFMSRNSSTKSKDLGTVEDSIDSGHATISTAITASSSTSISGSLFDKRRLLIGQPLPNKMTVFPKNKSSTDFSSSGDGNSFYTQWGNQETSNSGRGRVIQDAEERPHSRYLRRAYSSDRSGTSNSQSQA
Chain of Aurora A (O14965 whole entry): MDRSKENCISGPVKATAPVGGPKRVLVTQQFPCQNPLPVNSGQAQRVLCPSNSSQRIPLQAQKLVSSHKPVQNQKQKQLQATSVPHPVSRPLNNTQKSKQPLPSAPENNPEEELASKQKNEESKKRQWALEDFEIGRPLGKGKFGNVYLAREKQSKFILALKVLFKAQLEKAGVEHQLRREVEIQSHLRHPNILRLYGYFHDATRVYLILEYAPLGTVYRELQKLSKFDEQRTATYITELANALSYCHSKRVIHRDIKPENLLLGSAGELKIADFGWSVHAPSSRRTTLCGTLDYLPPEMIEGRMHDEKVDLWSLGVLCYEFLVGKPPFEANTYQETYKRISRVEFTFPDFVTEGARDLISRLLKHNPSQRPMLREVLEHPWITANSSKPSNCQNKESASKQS

On to `COc1ccc2c(c1)[C@]1(C[C@H]1c1ccc3c(-c4ccc(N5CCNCC5)nc4)n[nH]c3c1)C(=O)N2` (relative stereo) [Example A21, 4-(5-(6-((1R*,2S*)-5′-Methoxy-2′-oxospiro[cyclopropane-1,3′-indoline]-2-yl)-1H-indazol-3-yl)pyridinium-2-yl)piperazine bis(2,2,2-trifluoroacetate)], for which, in assay [1], the inhibition at 1 µM was < 50%. Besides, the 50% inhibitory concentration (IC50) in assay [2] (read-out: Aurora B IC50 Ranges) and in assay [3] (read-out: PLK4 IC50 Ranges) was < 100 nM each time.

Consider `COc1ccc2c(c1)[C@]1(C[C@H]1c1ccc3c(-c4ccnc(N5CCN(C)CC5)c4)n[nH]c3c1)C(=O)N2` (relative stereo) [Example A37, (1R*,2S*)-5′-Methoxy-2-(3-(2-(4-methylpiperazin-1-yl)pyridin-4-yl)-1H-indazol-6-yl)spiro[cyclopropane-1,3′-indolin]-2′-one], for which the inhibition at 1 µM in assay [1] is < 50%. Also, the 50% inhibitory concentration (IC50) in assay [2] (read-out: Aurora B IC50 Ranges) and in assay [3] (read-out: PLK4 IC50 Ranges) was < 100 nM in each case.

With `COc1ccc2c(c1)[C@]1(C[C@H]1c1ccc3c(-c4ccc(N5CCN(C)CC5)cc4)n[nH]c3c1)C(=O)N2` (relative stereo) [Example A38, (1R*,2S*)-5′-Methoxy-2-(3-(4-(4-methylpiperazin-1-yl)phenyl)-1H-indazol-6-yl)spiro[cyclopropane-1,3′-indolin]-2′-one], the inhibition at 1 µM in assay [1] was < 50%. The IC50 in assay [2] (read-out: Aurora B IC50 Ranges) and in assay [3] was < 100 nM in each case.

For `COc1ccc2c(c1)[C@]1(C[C@H]1c1ccc3c(-c4cccc(CO)c4)n[nH]c3c1)C(=O)N2` (relative stereo) [Example A43, (1R*,2S*)-2-(3-(3-(hydroxymethyl)phenyl)-1H-indazol-6-yl)-5′-methoxy spiro[cyclopropane-1,3′-indolin]-2′-one 2,2,2-trifluoroacetate], in assay [1], the inhibition at 1 µM is < 50%. Further, the half-inhibitory concentration (IC50) in assay [2] (read-out: Aurora B IC50 Ranges) and in assay [3] (read-out: PLK4 IC50 Ranges) was < 100 nM in each case.

Turning to `CN1CCN(c2ccc(-c3n[nH]c4cc([C@@H]5C[C@@]56C(=O)Nc5ccc(N)cc56)ccc34)cc2)CC1` (relative stereo) [Example A86, (1R*,2S*)-5′-amino-2-(3-(4-(4-methylpiperazin-1-yl)phenyl)-1H-indazol-6-yl)spiro[cyclopropane-1,3′-indolin]-2′-one], in assay [1], the inhibition at 1 µM was > 50%. Further, the figures for the IC50 in assay [2] (read-out: Aurora B IC50 Ranges) and in assay [3] (read-out: PLK4 IC50 Ranges) were 100 to 1000 nM and < 100 nM, respectively.

Consider `CN1C(=O)[C@@]2(C[C@H]2c2ccc3c(/C=C/c4ccc(N5CCNCC5)cc4)n[nH]c3c2)c2ccccc21` (relative stereo) [Example A89, (1R*,2S*)-(E)-1′-methyl-2-(3-(4-(piperazin-1-yl)styryl)-1H-indazol-6-yl)spiro[cyclopropane-1,3′-indolin]-2′-one 2,2,2-trifluoroacetate], for which the inhibition at 1 µM in assay [1] is > 50%. Besides, the 50% inhibitory concentration (IC50) in assay [2] and in assay [3] was < 100 nM each time.

For `O=C1Nc2ccccc2[C@]12C[C@H]2c1ccc2c(/C=C/c3ccc(N4CCNCC4)cc3)n[nH]c2c1` (relative stereo) [Example A91, (1R*,2S*)-(E)-2-(3-(4-(piperazin-1-yl)styryl)-1H-indazol-6-yl)spiro[cyclopropane-1,3′-indolin]-2′-one 2,2,2-trifluoroacetate], the inhibition at 1 µM in assay [1] is > 50%. The IC50 in assay [2] (read-out: Aurora B IC50 Ranges) and in assay [3] was < 100 nM each time.

In the case of `CN1C(=O)[C@@]2(C[C@H]2c2ccc3c(/C=C/c4ccc(CN5CCCCC5)cc4)n[nH]c3c2)c2ccccc21` (relative stereo) [Example A95, (1R*,2S*)-(E)-1′-methyl-2-(3-(4-(piperidin-1-ylmethyl)styryl)-1H-indazol-6-yl)spiro[cyclopropane-1,3′-indolin]-2′-one 2,2,2-trifluoroacetate], the IC50 in assay [2] (read-out: Aurora B IC50 Ranges) and in assay [3] (read-out: PLK4 IC50 Ranges) was < 100 nM throughout.

On to `CCc1ccc2c(c1)[C@]1(C[C@H]1c1ccc3c(-c4ccc(N5CCN(C)CC5)cc4)n[nH]c3c1)C(=O)N2` (relative stereo) [Example A142, (1R*,2S*)-5′-ethyl-2-(3-(4-(4-methylpiperazin-1-yl)phenyl)-1H-indazol-6-yl)spiro[cyclopropane-1,3′-indolin]-2′-one 2,2,2-trifluoroacetate], for which the IC50 in assay [2] (read-out: Aurora B IC50 Ranges) and in assay [3] (read-out: PLK4 IC50 Ranges) was < 100 nM throughout.

On to `COc1cc2c(cc1OC)[C@]1(C[C@H]1c1ccc3c(-c4cccc(CN5CCOCC5)c4)n[nH]c3c1)C(=O)N2` (relative stereo) [Example A143, (1R*,2S*)-5′,6′-dimethoxy-2-(3-(3-(morpholinomethyl)phenyl)-1H-indazol-6-yl)spiro[cyclopropane-1,3′-indolin]-2′-one 2,2,2-trifluoroacetate], for which, in assay [3] (read-out: PLK4 IC50 Ranges), the IC50 is > 1000 nM.

Take `CN1CCN(c2ccc(/C=C/c3n[nH]c4cc([C@@H]5C[C@@]56C(=O)Nc5ccccc56)ccc34)cn2)CC1` (relative stereo) [Example A157, (1R*,2S*)-2-(3-((E)-2-(6-(4-methylpiperazin-1-yl)pyridin-3-yl)vinyl)-1H-indazol-6-yl)spiro[cyclopropane-1,3′-indolin]-2′-one bis-2,2,2-trifluoroacetate]: the inhibition at 1 µM in assay [1] was > 50%. For the same compound, in assay [3] (read-out: PLK4 IC50 Ranges), the IC50 is < 100 nM.

`CN1CCN(c2ccc(-c3n[nH]c4cc([C@@H]5C[C@@]56C(=O)Nc5ccc(C(F)(F)F)cc56)ccc34)cc2)CC1` (relative stereo) [Example A170, (1R*,2S*)-2-(3-(4-(4-methylpiperazin-1-yl)phenyl)-1H-indazol-6-yl)-5′-(trifluoromethyl)spiro[cyclopropane-1,3′-indolin]-2′-one 2,2,2-trifluoroacetate]: the half-maximal inhibitory concentration (IC50) in assay [3] (read-out: PLK4 IC50 Ranges) lay in the range of 100 to 1000 nM.

In the case of `CN(C)Cc1ccc(/C=C/c2n[nH]c3cc([C@@H]4C[C@@]45C(=O)Nc4ncccc45)ccc23)cc1` (relative stereo) [Example A172, (1R*,2S*)-(E)-2-(3-(4-((dimethylamino)methyl)styryl)-1H-indazol-6-yl)spiro[cyclopropane-1,3′-pyrrolo[2,3-b]pyridin]-2′(1′H)-one 2,2,2-trifluoroacetate], the IC50 in assay [2] (read-out: Aurora B IC50 Ranges) and in assay [3] (read-out: PLK4 IC50 Ranges) was < 100 nM in each case.

For the compound `O=C1Nc2ccccc2[C@]12C[C@H]2c1ccc2c(/C=C/c3ccc(CN4CCOCC4)c(F)c3)n[nH]c2c1` [Example A200, (1R,2S)-(E)-2-(3-(3-fluoro-4-(morpholinomethyl)styryl)-1H-indazol-6-yl)spiro[cyclopropane-1,3′-indolin]-2′-one 2,2,2-trifluoroacetate], the inhibition at 1 µM in assay [1] was > 50%.

On to `C[C@@H]1CCC[C@H](C)N1Cc1ccc(/C=C/c2n[nH]c3cc([C@@H]4C[C@@]45C(=O)Nc4ccccc45)ccc23)cc1` [Example A201, (1R,2S)-(E)-2-(3-(4-((cis-2,6-dimethylpiperidin-1-yl)methyl)styryl)-1H-indazol-6-yl)spiro[cyclopropane-1,3′-indolin]-2′-one 2,2,2-trifluoroacetate], for which the inhibition at 1 µM in assay [1] is > 50%.

On to `O=C1Nc2ccccc2[C@]12C[C@H]2c1ccc2c(/C=C/c3csc(CN4CCOCC4)c3)n[nH]c2c1` [Example A202, (1R,2S)-2-(3-((E)-2-(5-(morpholinomethyl)thiophen-3-yl)vinyl)-1H-indazol-6-yl)spiro[cyclopropane-1,3′-indolin]-2′-one 2,2,2-trifluoroacetate], for which, in assay [1], the inhibition at 1 µM was > 50%.

Turning to `COc1ccc2c(c1)[C@]1(C[C@H]1c1ccc3c(/C=C/c4ccc(CN5[C@H](C)CCC[C@@H]5C)cc4)n[nH]c3c1)C(=O)N2` [Example A203, (1R,2S)-(E)-2-(3-(4-((cis-2,6-dimethylpiperidin-1-yl)methyl)styryl)-1H-indazol-6-yl)-5′-methoxyspiro[cyclopropane-1,3′-indolin]-2′-one 2,2,2-trifluoroacetate], the inhibition at 1 µM in assay [1] was > 50%.

Regarding `O=C1Nc2ccccc2[C@]12C[C@H]2c1ccc2c(/C=C/c3ccc(OCCN4CCOCC4)cc3)n[nH]c2c1` [Example A204, (1R,2S)-(E)-2-(3-(4-(2-morpholinoethoxy)styryl)-1H-indazol-6-yl)spiro[cyclopropane-1,3′-indolin]-2′-one 2,2,2-trifluoroacetate], the inhibition at 1 µM in assay [1] is > 50%.

Turning to `O=C1Nc2ccccc2[C@]12C[C@H]2c1ccc2c(/C=C/c3ccc(CCN4CCOCC4)cc3)n[nH]c2c1` [Example A205, (1R,2S)-(E)-2-(3-(4-(2-morpholinoethyl)styryl)-1H-indazol-6-yl)spiro[cyclopropane-1,3′-indolin]-2′-one 2,2,2-trifluoroacetate], the inhibition at 1 µM in assay [1] was > 50%.

On to `CCN(CC)Cc1ccc(/C=C/c2n[nH]c3cc([C@@H]4C[C@@]45C(=O)Nc4ccc(OC)cc45)ccc23)cc1` [Example A206, (1R,2S)-(E)-2-(3-(4-((diethylamino)methyl)styryl)-1H-indazol-6-yl)-5′-methoxy spiro[cyclopropane-1,3′-indolin]-2′-one 2,2,2-trifluoroacetate], for which, in assay [1], the inhibition at 1 µM is > 50%.

Consider `COc1ccc2c(c1)[C@]1(C[C@H]1c1ccc3c(/C=C/c4cc(F)c(CN(C)C)c(F)c4)n[nH]c3c1)C(=O)N2` [Example A216, (1R,2S)-(E)-2-(3-(4-((dimethylamino)methyl)-3,5-difluorostyryl)-1H-indazol-6-yl)-5′-methoxyspiro[cyclopropane-1,3′-indolin]-2′-one 2,2,2-trifluoroacetate], for which the inhibition at 1 µM in assay [1] is > 50%.

Consider `COc1ccc2c(c1)[C@]1(C[C@H]1c1ccc3c(/C=C/c4cc(F)c(CN5CCOCC5)c(F)c4)n[nH]c3c1)C(=O)N2` [Example A218, (1R,2S)-(E)-2-(3-(3,5-difluoro-4-(morpholinomethyl)styryl)-1H-indazol-6-yl)-5′-methoxyspiro[cyclopropane-1,3′-indolin]-2′-one 2,2,2-trifluoroacetate], for which the inhibition at 1 µM in assay [1] was > 50%.

As for `O=C1Nc2ccc(F)cc2[C@]12C[C@H]2c1ccc2c(/C=C/c3ccc(CN4CCOCC4)cc3)n[nH]c2c1` [Example A220], the inhibition at 1 µM in assay [1] is > 50%.

In the case of `CCN(CC)Cc1c(F)cc(/C=C/c2n[nH]c3cc([C@@H]4C[C@@]45C(=O)Nc4ccccc45)ccc23)cc1F` [Example A221, (1R,2S)-(E)-2-(3-(4-((diethylamino)methyl)-3,5-difluorostyryl)-1H-indazol-6-yl)spiro[cyclopropane-1,3′-indolin]-2′-one 2,2,2-trifluoroacetate], in assay [1], the inhibition at 1 µM was > 50%.

By inhibition is commonly meant the percentage by which the read-out fell short of the control. Higher therefore signals a strong effect. The term IC50 denotes the point on the concentration scale where inhibition reaches its midpoint.
